Patent US20120082659A1, “Methods And Compositions Related To Synergistic Responses To Oncogenic Mutations” (priority 2007, published 2012)

Tests used:
mp53/Ras cells [1] = test: Cell death / anoikis by TUNEL staining, mp53/Ras cells; assay type: cell-based, mouse; settings: methylcellulose without FBS or ITS-A
Method: (§1) The cells were re-plated at 458,000 cells per 15 cm dish in 10% FBS medium and treated for three days with 2.5 mM NB or VA at 39° C. Cells were then trypsinized and (A), (B) suspended in methylcellulose supplemented with fresh NB or VA, 10% FBS, and ITS-A at 37,000 cells per mL, or (C) suspended in methylcellulose w/o FBS, or ITS-A at 150,000 cells per mL and incubated at 39° C. for three days. Cells were extracted from the methylcellulose by repeated re-suspension in PBS w/1% BSA and centrifugation, and briefly trypsinized to break up cell aggregates. The extracted cells were labeled with 10 μM BrdU for ninety minutes prior to harvesting, fixed in cold 80% ethanol, and stained with an anti-BrdU antibody and propidium iodide to measure cell cycle progression (A), or fixed in 4% paraformaldehyde, and TUNEL-stained to measure cell death (B), (C). Error bars represent standard deviation values derived from multiple independent measurements for each sample. […]
(§2) For anoikis assays, cells were then trypsinized, counted and suspended in methylcellulose at a density of 1.5×10^5 cells/mL for an additional 72 hours in the absence of HDACi. […]
(§3) Paraformaldehyde-fixed cells were pelleted and washed with PBS containing 0.1% BSA. […] TUNEL-stained cells were analyzed by flow cytometry using a FACScalibur (Becton Dickinson). The percentage of TUNEL-positive cells was analyzed using ModFit LT for Mac v2.0.

YAMC cells [2] = test: Cell death / anoikis by TUNEL staining, YAMC cells; assay type: cell-based, mouse; settings: methylcellulose without FBS or ITS-A
Method: as §1, §2, §3

mp53/Ras cells [3] = test: Proliferation and morphology of mp53/Ras cells in adherent culture; assay type: cell-based, mouse; settings: for cell proliferation over time: mp53/Ras cells, 2.5 mM
Excerpt: (§4) These compounds affect human cancer cell line behavior in vitro in the millimolar range and even higher concentrations are required in vivo (Villar-Garea and Esteller, 2004).

YAMC cells [4] = test: Proliferation and morphology of YAMC cells in adherent culture; assay type: cell-based, mouse; settings: 5 mM, three days, 10% FBS medium
Excerpt: as §4

mp53/Ras cells [5] = test: Xenograft tumor formation by mp53/Ras cells in nude mice; assay type: in vivo, mouse; settings: for tumor formation in nude mice by drug-pre-treated cells: mp53/Ras cells pre-treated in vitro with 2.5 mM, xenograft, vs untreated cells; for % Change in Tumor Volume (Perturbed vs. Control): mp53/Ras cells with gene perturbation, s.c. in nude mice, 4 weeks, vs matched vector control
Method: (§5) Murine mp53/Ras cells were grown at 39° C. for 2 days prior to injection. Human HT-29 and DLD-1 cells were grown in standard conditions, described above. Tumor formation was assessed by sub-cutaneous injection of 5×10^5 cells (mp53/Ras and DLD-1 cells) or 1.25×10^5 cells (HT-29) into CD-1 nude mice (Cr1:CD-1-Foxn1nu, Charles River Laboratories) in appropriate media (RPMI 1640 or DMEM) with no additives. For each replicate of all gene perturbations, 2-12 injections were performed for perturbed cells and vector controls, as indicated in FIGS. 12 and 16. Tumor size was measured by caliper at 2, 3 and 4 weeks post-injection. Tumor volume was calculated by the formula volume=(4/3)πr3, using the average of two radius measurements. Tumor reduction was calculated based on the average tumor volume following each gene perturbation as compared to the directly matched vector control tumors. Statistical significance of difference in tumor size was calculated by the Wilcoxn signed-rank test (Hollander, M. & Wolfe, D. A. Nonparametric Statistical Methods (Wiley-Interscience, Hoboken, N.J., 1998)), comparing tumors derived from perturbed cells with tumors induced by directly matching vector control cells.
Tumor formation was assessed by sub-cutaneous injection of cells into CD-1 nude mice (Cr1: CD-1-Foxn1^nu, Charles River Laboratories). Tumor size was measured by caliper at 2, 3 and 4 weeks post-injection. Significance of difference in tumor size was calculated by the Wilcoxn signed-rank test and by the t-test using directly matching vector control cells for each perturbation.
For tumor formation studies, cells were treated with HDACi as indicated above, then trypsinized, counted and injected sub-cutaneously into the flanks of CD-1 nude mice at a multiplicity of 5×10^5 cells per injection. Mice were observed and tumors measured for 4 weeks post-injection by caliper.
Murine mp53/Ras cells were grown at 39° C. for 2 days prior to injection. Human CaPan-2 and PC3 cells were grown in standard conditions, described above. Tumor formation was assessed by sub-cutaneous injection of 5×10^5 mp53/Ras cells or 7.5×10^5 CaPan-2 or PC3 cells into CD-1 nude mice (Cr1: CD-1-Foxn1^nu, Charles River Laboratories) in appropriate media (RPMI 1640 or DMEM) with no additives. For each replicate of all gene perturbations, 2-12 injections were performed for perturbed cells and vector controls. Tumor size was measured by caliper weekly for up to 6 weeks post-injection. Tumor volume was calculated by the formula volume=(4/3)πr^3, using the average of two radius measurements. Tumor reduction was calculated based on the average tumor volume following each gene perturbation as compared to the directly matched vector control tumors. Statistical significance of difference in tumor size was calculated by both the Wilcoxn signed-rank test and the t-test to assess consistency of significance calls, comparing tumors derived from perturbed cells with tumors induced by directly matching vector control cells.

[6] = tested on: cooperation response genes; test: TLDA QPCR of CRG expression in HDACi-treated mp53/Ras cells; assay type: cell-based, mouse; settings: 2.5 mM, 3 days, 56 CRGs tested by TLDA
Method: The YAMC cell system (Jat et al., 1991; Whitehead et al., 1993) and transformation of these cells by mp53/Ras are described elsewhere (Xia and Land, 2007). YAMC and mp53/Ras cells were cultured for two days at 39° C. in RPMI with 10% FBS without interferon-γ on collagen IV-coated dishes. Cells were then re-plated on collagen IV-coated dishes into the same medium containing either 2.5 mM NB, 2.5 mM VA, or no drug for 72 hours at a density of 4.58×10^5 cells per 15-cm dish. Cells were harvested for RNA isolation at this point, or used for biological assays as described below.
The TaqMan Low-Density Array (Applied Biosystems) consists of TaqMan qPCR reactions targeting the cooperation response genes available and control genes (18S rRNA, GAPDH) in a microfluidic card. TLDA were used to independently test gene expression differences observed in the CMap database which used Affymetrix arrays. To generate cDNA for qPCR analysis, quadruplicate samples of RNA was isolated from untreated YAMC cells or mp53/Ras cells treated with either 2.5 mM VA, 2.5 mM NB or no drug for 72 hours, using the RNeasy and Qiashredder kits (Qiagen). Ten μg of RNA per sample were mixed with 1× SuperScript II First Strand buffer, 10 mM DTT, 400 μM dNTP mixture, 0.3 ng random hexamer primer, 2 μL RNaseOUT RNase inhibitor and 2 μL of SuperScript II reverse transcriptase in a 100 μL reaction (all components from Invitrogen). RT reactions were carried out by denaturing RNA at 70° C. for 10 minutes, plunging RNA on to ice, adding other components, incubating at 42° C. for 1 hour and heat inactivating the RT enzyme by a final incubation at 70° C. for 10 minutes.
For each sample, 82 μL of cDNA was combined with 328 μl of nuclease free water (Invitrogen) and an equal volume of TaqMan Universal PCR Master Mix No AmpErase UNG (Applied Biosystems). The mixture was loaded into each of 8 ports on the card at 100 μL per port. Each reaction contained forward and reverse primer at a final concentration of 900 nM and a TaqMan MGB probe (6-FAM) at 250 nM final concentration. […]. The real-time RT-PCR amplifications were run on an ABI Prism 7900HT Sequence Detection System (Applied Biosystems) with a TaqMan Low Density Array Upgrade. Thermal cycling conditions were as follows: 2 min at 50° C., 10 min at 94.5° C., 40 cycles of 97° C. for 30 seconds, and annealing and extension at 59.7° C. for 1 minute. Each individual replicate cDNA sample was processed on a separate card.
Gene expression values were derived using SDS 2.2 software package (Applied Biosystems). Differential gene expression was calculated by the ΔΔCt method. Briefly, using threshold cycle (Ct) for each gene, change in gene expression was calculated for each sample comparison by the formulae: […]

HT-29 cells = test: Xenograft tumor formation by HT-29 colon cancer cells in nude mice; assay type: in vivo, human; settings: HT-29 cells with gene perturbation, vs matched vector control
Method: as §5

| Molecule | cell proliferation over time (mp53/Ras cells [3]) | tumor formation in nude mice by drug-pre-treated cells (mp53/Ras cells [5]; four weeks) | proportion of CRGs whose expression is significantly altered (reversal of CRG signature) [6] [%] | % Change in Tumor Volume (Perturbed vs. Control) (mp53/Ras cells [5]) [%] | also measured |
| --- | --- | --- | --- | --- | --- |
| CCCC(=O)[O-].[Na+] [sodium butyrate] | completely inhibited | significantly smaller tumors | ~55 | – | increase in cell death (TUNEL) (mp53/Ras cells [1]): greater than five-fold; apoptosis (TUNEL) (YAMC cells [2]): did not decrease apoptosis; cell morphology (mp53/Ras cells [3]; transformed cells, 5 mM, three days, 10% FBS medium): dramatic morphological change; cell morphology (YAMC cells [4]): unaffected; NB Tumors (mp53/Ras cells [5]; mp53/Ras cells treated with 2.5 mM NB for three days before injection, 500,000 cells s.c. in CD1 nude mice, four weeks, tumors/injections): 1/16; proportion of CRGs whose expression is significantly altered (reversal of CRG signature) ([6]; listed as NB): about 55% |
| CCCC(CCC)C(=O)O [valproic acid] | completely inhibited | significantly smaller tumors | ~55 | – | proportion of CRGs whose expression is significantly altered (reversal of CRG signature) ([6]; listed as VA): about 55% |
| Plac8: shRNA-dependent stable knock-down of up-regulated CRG Plac8 (retroviral) (sense CTGGCAGACCAGCCTGTGTTT; the letters are possibly those of the target site) | – | – | – | −100 | % Change in Tumor Volume (Perturbed vs. Control) (HT-29 cells): −100.00% |
| Rgs2: shRNA-dependent stable knock-down of up-regulated CRG Rgs2 (retroviral) (sense GCGCAGCTCTGGGCAGAAG; the letters are possibly those of the target site) | – | – | – | −60 | – |
| Slc14a1: shRNA-dependent stable knock-down of up-regulated CRG Slc14a1 (retroviral) (sense TCCTGATTCTGGTGGGACT; the letters are possibly those of the target site) | – | – | – | 180 | – |
| Sod3: shRNA-dependent stable knock-down of up-regulated CRG Sod3 (retroviral) (sense GGCGACACGCATGCCAAAG; target site or template, no part of the molecule) | – | – | – | −72 | – |
